≈ marks a conversion by molar mass, not a printed value. Like-named read-outs stand apart in the source and are kept apart here.
Legend:
Assay in all cases: Robotic MIC assay, Candida strains (Example 2)
Assay type in all cases: cell-based
[1] = test system: C. albicans CCUG 39343; conditions: Candida albicans, CCUG39343, 48 h, Mueller-Hinton broth, read-out: Minimum Inhibitory Concentration (MIC)
Procedure: (§1) A robotic MIC Assay was performed as follows. OligoG CF-5/20 were dissolved in medium (Mueller-Hinton broth or M19 broth depending on experiment) to 1.25 times of the desired assay concentrations (2, 6 and 10%). The antifungal agents under test were dissolved in medium without OligoG CF-5/20 and in medium with OligoG CF-5/20 at a concentration of 1.25 times the highest desired assay concentrations. For experiments where the effect of adding different concentrations of Na^+ was investigated, NaCl was dissolved in medium to the desired concentrations (10, 30 and 50 mM).
(§2) Two-fold serial dilutions of antifungal agents were made in medium with different concentrations of OligoG CF-5/20, and the solutions were placed in four parallel wells in Nunc 384-well micro plates (30 μl per well in Nunc 242757 microplates). A group of 8 wells with no addition of antifungal agents for each OligoG CF-5/20 concentration was included on each microplate as growth reference. To each well in the 384-well assay plates was added 7.5 μl of medium inoculated with a frozen stock culture of Candida albicans (strain CCUG 39343).
(§3) The micro plates were placed in plastic bags and incubated without shaking at 34° C. The optical density at 600 nm in the microwells was measured after approximately 13, 18, 24 and 34 hours of incubation, and the relative growth yield in each well was calculated based on the growth in the reference groups.
(§4) The robotic assay described in Example 1 was employed in this Example. Strains were grown in Mueller-Hinton broth (LAB114 from Lab M Limited) and MIC values (μg ml-1) were determined for each antifungal after incubation for 48 h in the presence of 0, 2, 6 and 10% OligoG CF-5/20 G-fragments. […] OligoG CF-5/20 G-fragments were provided by AlgiPharma AS, Norway.
(§5) Candida strains used were as follows: • C. albicans CCUG 39343 (strain from culture collection) • C. parapsillosis ATCC 22019T (strain from culture collection) • C. krusei 141/03 (candidosis) • C. krusei 249/03(2) (ulceration) • C. lusitaniae 994/01(2) (candidosis) • C. tropicalis 12 (vaginal) • C. tropicalis 75 (vaginal) • C. tropicalis 519468 (urinary) • C. tropicalis 544123 (urinary) • C. tropicalis 250/03 (candidosis) • C. tropicalis AG1 (oral) • C. tropicalis T2.2 (oral)

[2] = test system: C. krusei 249/03(2) (ulceration); conditions: Pichia kudriavzevii, 48 h, Mueller-Hinton broth, read-out: Minimum Inhibitory Concentration (MIC)
Procedure: as §1, §2, §3, §4, §5

[3] = test system: C. lusitaniae 994/01(2) (candidosis); conditions: Clavispora lusitaniae, 48 h, Mueller-Hinton broth, read-out: Minimum Inhibitory Concentration (MIC)
Procedure: as §1, §2, §3, §4, §5

[4] = test system: C. tropicalis 12 (vaginal); conditions: Candida tropicalis, 48 h, Mueller-Hinton broth, read-out: Minimum Inhibitory Concentration (MIC)
Procedure: as §1, §2, §3, §4, §5

[5] = test system: C. tropicalis 250/03 (candidosis); conditions: Candida tropicalis, 48 h, C. tropicalis 250/03 Candiosis, Mueller-Hinton broth, read-out: Minimum Inhibitory Concentration (MIC)
Procedure: as §1, §2, §3, §4, §5

[6] = test system: C. tropicalis 519468 (urinary); conditions: Candida tropicalis, 48 h, Mueller-Hinton broth, read-out: Minimum Inhibitory Concentration (MIC)
Procedure: as §1, §2, §3, §4, §5

[7] = test system: C. tropicalis 544123 (urinary); conditions: Candida tropicalis, 48 h, Mueller-Hinton broth, read-out: Minimum Inhibitory Concentration (MIC)
Procedure: as §1, §2, §3, §4, §5

[8] = test system: C. tropicalis 75 (vaginal); conditions: Candida tropicalis, 48 h, Mueller-Hinton broth, read-out: Minimum Inhibitory Concentration (MIC)
Procedure: as §1, §2, §3, §4, §5

[9] = test system: C. tropicalis AG1 (oral); conditions: Candida tropicalis, 48 h, Mueller-Hinton broth, read-out: Minimum Inhibitory Concentration (MIC)
Procedure: as §1, §2, §3, §4, §5

With `CN(C/C=C/C#CC(C)(C)C)Cc1cccc2ccccc12` [Terbinafine, terbinafine] the MIC ([1]; 0% OligoG) was greater than 32 µg/mL, the MIC ([1]; 2% OligoG) was greater than 32 µg/mL and the MIC ([1]; 6% OligoG) was greater than 32 µg/mL. For the same molecule, the MIC ([1]; 10% OligoG) was greater than 32 µg/mL, the MIC ([2]; 0% OligoG) was 4 µg/mL (≈ 13.7 µM) and the MIC ([2]; 2% OligoG) was 4 µg/mL (≈ 13.7 µM). The MIC ([2]; 6% OligoG) was 8 µg/mL (≈ 27.5 µM), the MIC ([2]; 10% OligoG) was 4 µg/mL (≈ 13.7 µM) and the MIC ([3]; 0% OligoG) was 8 µg/mL (≈ 27.5 µM). The MIC ([3]; 2% OligoG) was 4 µg/mL (≈ 13.7 µM), the MIC ([3]; 6% OligoG) was 4 µg/mL (≈ 13.7 µM) and the MIC ([3]; 10% OligoG) was 2 µg/mL (≈ 6.86 µM). For the same molecule, the MIC ([4]; 0% OligoG) was greater than 32 µg/mL, the MIC ([4]; 2% OligoG) was 16 µg/mL (≈ 54.9 µM) and the MIC ([4]; 6% OligoG) was greater than 32 µg/mL. For the same molecule, the MIC ([4]; 10% OligoG) was 32 µg/mL (≈ 110 µM), the MIC ([5]; 0% OligoG) was greater than 32 µg/mL and the MIC ([5]; 2% OligoG) was greater than 32 µg/mL. For the same molecule, the MIC ([5]; 6% OligoG) was greater than 32 µg/mL, the MIC ([5]; 10% OligoG) was greater than 32 µg/mL and the MIC ([6]; 0% OligoG) was greater than 32 µg/mL. For the same molecule, the MIC ([6]; 2% OligoG) was greater than 32 µg/mL, the MIC ([6]; 6% OligoG) was greater than 32 µg/mL and the MIC ([6]; 10% OligoG) was greater than 32 µg/mL. It also gave an MIC ([7]; 0% OligoG) greater than 32 µg/mL, an MIC ([7]; 2% OligoG) greater than 32 µg/mL and an MIC ([7]; 6% OligoG) greater than 32 µg/mL. The MIC ([7]; 10% OligoG) was greater than 32 µg/mL, the MIC ([8]; 0% OligoG) was greater than 32 µg/mL and the MIC ([8]; 2% OligoG) was greater than 32 µg/mL. The MIC ([8]; 6% OligoG) was greater than 32 µg/mL, the MIC ([8]; 10% OligoG) was greater than 32 µg/mL and the MIC ([9]; 0% OligoG) was greater than 32 µg/mL. For the same molecule, the MIC ([9]; 2% OligoG) was 32 µg/mL (≈ 110 µM), the MIC ([9]; 6% OligoG) was greater than 32 µg/mL and the MIC ([9]; 10% OligoG) was greater than 32 µg/mL.

— patent publication US20150126467A1, “USE OF ALGINATE OLIGOMERS TO ENHANCE THE EFFECTS OF ANTIFUNGAL AGENTS” (AlgiIPharma AS, priority 2011, published 2015)
